Test results taken from US20240335418A1, “SAFER PSYCHOACTIVE COMPOSITIONS” (Arcadia Medicine, Inc., priority 2021, published 2024).
“Also recorded” adds a separate entry of the source. Like-named read-outs stand apart in the source and are kept apart here.

Columns and labels:
[1] = mouse; cited from earlier work
[2] = rat, cited from earlier work
[3] = Human Equivalent Dose (HED) of NOAEL; settings: for Human Equivalent Dose (HED): NOAEL (human), total dose / Human Equivalent Dose (HED): Neurotoxicology NOAEL (human), total dose: assuming a 60 kg human; for NOAEL: human, po
[4] = cited from earlier work
[5] = p.o. in rat (SR(±)MDMA: with single housing); cited from earlier work
[6] = test system: serotonergic presynaptic markers; settings: primate study; cited from earlier work
[7] = cited from earlier work; remark: listed apart in the source
[8] = dog, p.o.; cited from earlier work
[9] = dog, female and male, p.o.; cited from earlier work
[10] = cited from earlier work; for Fear behavior during the fear extinction session: during extinction training; for Conditioned fear when retention of extinction was assessed: the following day
[11] = Subjective report: physiological and subjective effects after oral administration (Subject A); format: in vivo, human
Procedure: To determine the physiological and subjective effects of the hydrochloride salt of R-MDMA (oral administration, 250 (±) 10 mg), supplemented with acetyl-L-carnitine (ALCAR), alpha lipoic acid (ALA), ascorbate to reduce or prevent neurotoxicity.
2.2 g of racemic MDMA was obtained and dissolved in methanol at a stock concentration of 10 mg/mL. A ChiralPak Ad-H column (150×4.6 mm, 5 μm particle size) was flushed with mobile phase solution on an Agilent 1260 machine with a variable UV-Vis detector and 10 uL of the final concentrated solution (1:100) was injected on a 35 min run cycle. Due to the preliminary nature of the testing, no further characterization was done. The laevo-rich form was the first eluted. It was collected and roto-evaporated into solid form and then dried over magnesium pellets. The product, when dried and washed thoroughly, was sent out for anonymized 1H-NMR testing to determine identity.
Vitals were taken hourly, and were taken four times between hours two and three. Heart rate rose for a short period to 115-125 from 85 resting.
MDMA enantiomers were recombined in a 9:1 ratio through crystallization and washing.

[12] = Maximum Recommended Starting Dose (MRSD) and doses tested in humans; settings: expected value
[13] = target: CYP2D6 (Homo sapiens, UniProt P10635); settings: cited from earlier work
[14] = target: CYP2C19 (Homo sapiens, UniProt P33261); settings: cited from earlier work
[15] = No adverse effect level (NOAEL) in rat, p.o.; settings: in vivo, po
[16] = 100 mg, healthy volunteers, brain imaging studies

Chain of CYP2D6 (P10635 whole entry): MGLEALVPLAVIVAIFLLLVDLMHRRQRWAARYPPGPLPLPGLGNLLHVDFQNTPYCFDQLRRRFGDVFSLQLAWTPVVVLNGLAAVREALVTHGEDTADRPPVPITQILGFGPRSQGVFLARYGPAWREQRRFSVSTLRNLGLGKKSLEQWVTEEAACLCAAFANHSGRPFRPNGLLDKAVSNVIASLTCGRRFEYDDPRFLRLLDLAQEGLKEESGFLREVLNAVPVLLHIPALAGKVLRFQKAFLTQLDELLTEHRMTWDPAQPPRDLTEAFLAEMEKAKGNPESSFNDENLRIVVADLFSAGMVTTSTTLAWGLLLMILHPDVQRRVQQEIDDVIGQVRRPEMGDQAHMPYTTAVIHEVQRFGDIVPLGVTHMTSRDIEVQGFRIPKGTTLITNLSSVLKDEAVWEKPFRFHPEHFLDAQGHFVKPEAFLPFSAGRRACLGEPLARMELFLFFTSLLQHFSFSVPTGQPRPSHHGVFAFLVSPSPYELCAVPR
Chain of CYP2C19 (P33261 whole entry): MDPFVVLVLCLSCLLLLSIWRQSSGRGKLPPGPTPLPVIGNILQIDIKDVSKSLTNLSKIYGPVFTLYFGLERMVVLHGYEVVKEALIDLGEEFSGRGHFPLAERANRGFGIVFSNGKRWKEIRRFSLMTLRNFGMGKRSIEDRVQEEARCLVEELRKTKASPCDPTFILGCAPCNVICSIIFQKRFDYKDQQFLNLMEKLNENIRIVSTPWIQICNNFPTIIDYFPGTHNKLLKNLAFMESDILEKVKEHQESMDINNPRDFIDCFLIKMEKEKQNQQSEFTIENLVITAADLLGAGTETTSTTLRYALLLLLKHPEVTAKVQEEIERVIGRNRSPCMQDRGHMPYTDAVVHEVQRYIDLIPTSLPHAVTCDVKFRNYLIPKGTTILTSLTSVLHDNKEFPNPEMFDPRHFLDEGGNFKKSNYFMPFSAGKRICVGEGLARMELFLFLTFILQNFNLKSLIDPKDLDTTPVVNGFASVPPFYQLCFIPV

For `CNC(C)Cc1ccc2c(c1)OCO2` (stereo not drawn) [MDMA, 3,4-methylenedioxymethamphetamine], the Critical period peak [1] is listed as 40 h, the “Critical period starts to open, time after the acute dose” value [1] is listed as “about six” and the “Neurotoxicology NOAEL” value ([2]; female, p.o.) is listed as 25 mg/kg/week p.o1. For the same compound, the “Neurotoxicology NOAEL” value ([2]; male, p.o.) was 20 mg/kg/week p.o1, the “Human Equivalent Dose (HED): NOAEL (human)” value ([3]; 9:1 R:S MDMA: expected, p.o.) was 34 mg/kg → and the “Human Equivalent Dose (HED): Neurotoxicology NOAEL (human)” value ([3]; 9:1 R:S MDMA: i.v.) was “NOAEL (human): 6 mg/kg”. The “Human Equivalent Dose (HED): NOAEL (human), total dose” value ([3]; 9:1 R:S MDMA: expected, p.o.) was 2080 mg, the “Human Equivalent Dose (HED): Neurotoxicology NOAEL (human), total dose” value ([3]; 9:1 R:S MDMA: i.v.) was 342.9 mg* and the “Duration of subjective effects” value [4, 16] was “approximately 4.5 hours”. The “Time of peak subjective effects” value [4, 16] was 100 min, the Duration of effects ([4]; patients with PTSD receiving one dose) was 4 to 5 h and the “Onset of action after the initial dose” value ([4]; patients with PTSD, 100-125 mg) was 45 to 75 min. The “Time of peak drug effects” value ([4]; patients with PTSD, 100-125 mg) was 2 to 5 h, the Duration of effects ([4]; patients with PTSD, with the booster dose) was 5 to 6 h and the “Decrease of subjective effects to baseline values” ([4]; prior study (Harris et al.)) was 5 to 6 h. The “Onset of subjective effects” value ([4]; prior study (Harris et al.)) was “approximately 45 mins”, the “Peak of subjective effects” value ([4]; prior study (Harris et al.)) was 1.5 to 2 h and the “No adverse effect level (NOAEL)” value [5] was “NOAEL: 100 mg/kg”. The Serotonergic presynaptic markers [6] was “profound reductions in all three serotonergic presynaptic markers”, the Elimination half-life ([7]; doses ranging from 50-125 mg) was 7 to 9 h and the “Time to peak plasma concentration” value ([7]; humans, doses 100-125 mg) was 2 to 3 h. The “No adverse effect level (NOAEL)” value [8] was “NOAEL: 15 mg/kg in” and the “Neurotoxicology NOAEL” value [9] was 4 mg/kg/week p.o.
In the case of `CN[C@H](C)Cc1ccc2c(c1)OCO2` [R-MDMA, (R)-1-(1,3-Benzodioxol-5-yl)-N-methylpropan-2-amine], the “Fear behavior during the fear extinction session” value [10] is listed as “did not reduce fear behavior”, the “Conditioned fear when retention of extinction was assessed” value [10] is listed as “significantly reduced conditioned fear” and the “Neurotoxicology NOAEL” value ([2]; i.v.) is listed as 50 mg/kg i.v2. For the same compound, the “Duration of the whole experience” value ([11]; R-MDMA HCl 250 (±) 10 mg oral) was “approximately 7 hours”, the “Peak of the experience, time after ingestion” value ([11]; R-MDMA HCl 250 (±) 10 mg oral) was “around two” and the Start of come-down ([11]; R-MDMA HCl 250 (±) 10 mg oral) was about 4 h. The “Start of noticeable effects off-baseline” value ([11]; R-MDMA HCl 250 (±) 10 mg oral) was “around 40 minutes”, the Blood pressure ([11]; R-MDMA HCl 250 (±) 10 mg oral, monitor of low precision, result inconclusive) was “increased for a short period” and the Hyperthermia or hypothermia ([11]; single oral dose, Subject A) was “No noticeable hyperthermia or hypothermia”. For the same compound, the Jaw clenching ([11]; single oral dose, Subject A) was “No incidence of jaw clenching”, the “Stimulant effects compared with racemic MDMA” value ([11]; single oral dose, Subject A) was “almost entirely absent; also recorded: reduction in stimulation” and the Heart rate ([11]; single oral dose, Subject A, R-MDMA HCl 250 (±) 10 mg with supplements (rise from 85 resting), 9:1 R:S MDMA 230-240 mg) was 115-125. The “Human Equivalent Dose (HED): NOAEL (human), total dose” value ([3]; 9:1 R:S MDMA: expected, p.o.) was “mg/kg → >4100”, the “Human Equivalent Dose (HED): Neurotoxicology NOAEL (human), total dose” value ([3]; 9:1 R:S MDMA: i.v.) was 450 mg* and the NOAEL [3] was over 68 mg/kg. For the same compound, the “No adverse effect level (NOAEL)” value [5] was “NOAEL: >200 mg/kg”, the “AUC in comparison to S-MDMA” value ([7]; in vivo) was “increased AUC” and the “Half-life in comparison to S-MDMA” value ([7]; in vivo) was “longer half-life”.
In the case of `CN[C@@H](C)Cc1ccc2c(c1)OCO2` [S-MDMA, (S)-1-(1,3-Benzodioxol-5-yl)-N-methylpropan-2-amine], the “Fear behavior during the fear extinction session” value [10] is listed as “reduced conditioned fear behavior”, the “Conditioned fear when retention of extinction was assessed” value [10] is listed as “a reduction thereof was not observed” and the “Expected MSRD” value [12] is listed as 150 mg. For the same compound, the “Neurotoxicology NOAEL” value ([2]; i.v.) was 20 mg/kg i.v2,3, the “Human Equivalent Dose (HED): NOAEL (human), total dose” value ([3]; 9:1 R:S MDMA: expected, p.o.) was “mg/kg → <2080” and the “Human Equivalent Dose (HED): Neurotoxicology NOAEL (human), total dose” value ([3]; 9:1 R:S MDMA: i.v.) was 342.9 mg*. The NOAEL [3] was under 34 mg/kg, the “Affinity for CYP2D6 compared with the other enantiomer” value [13] was “higher affinity” and the “Metabolism by CYP2C19, enantiomer preference” value [14] was “preferentially metabolizes”. For the same compound, the NOAEL [15] was under 100 mg/kg.
